Results from patent publication US12138320B2, “Composition and methods for tumor imaging and treatment” (The University of Chicago, priority 2020, dated 2024).

Key:
NCEH1 = target: T1, NCEH1 (Mus musculus, UniProt Q8BLF1); experiment: In vivo microPET/CT imaging and ex vivo biodistribution in nude mice
T1 construct: For murine proteomes, mouse tissues were Dounce-homogenized on ice in cold PBS; from tissue; host or cells: athymic nude mice: heart, kidney, lung, liver, brain, spleen and other organs
T1 sequence (Q8BLF1 1-408): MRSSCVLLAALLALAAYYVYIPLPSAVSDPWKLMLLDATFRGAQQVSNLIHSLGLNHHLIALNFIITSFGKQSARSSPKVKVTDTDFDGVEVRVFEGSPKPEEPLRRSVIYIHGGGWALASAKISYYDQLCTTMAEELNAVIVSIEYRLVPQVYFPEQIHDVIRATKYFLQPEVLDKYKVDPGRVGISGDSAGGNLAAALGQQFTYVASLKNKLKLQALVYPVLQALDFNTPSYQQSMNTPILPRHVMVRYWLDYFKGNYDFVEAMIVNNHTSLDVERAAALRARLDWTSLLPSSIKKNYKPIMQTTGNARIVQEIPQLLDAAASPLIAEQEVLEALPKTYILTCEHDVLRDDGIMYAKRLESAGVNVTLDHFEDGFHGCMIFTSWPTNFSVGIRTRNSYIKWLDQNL
Method: In vivo microPET/CT imaging: All imaging was performed by the Integrated Small Animal Imaging Research Resource (iSAIRR) at the University of Chicago (Chicago, Illinois, United States of America) on a β-Cube and X-Cube (Molecubes NV, Ghent, Belgium). […] MicroCT images were acquired using the general purpose protocol, with energy of 50 KeV and a tube current of 100 μA. Respiration rate and body temperature of the animal were constantly monitored during the entire scanning period with the p-Cube and X-Cube onboard monitoring system. A 1 hr dynamic PET acquisition was started 2 hours after [^18F]JW199 injection. Dynamic reconstruction was performed for 6 frames of 10 minutes each using a three-dimensional (3D) OSEM algorithm with 400 μm isometric voxel size. For competition studies, mice were pretreated with either 80 mg/kg JW480 or vehicle (polyethylene glycol 300 (PEG300)) via oral gavage, followed 4 hours later by dosing with [^18F]JW199 and imaging as described. For the MDA-MB231 study, [^18F]JW199 injection was followed immediately by dynamic PET acquisition (90 min) and microCT scanning as detailed above. Dynamic PET image reconstruction included 9 frames of 10 minutes each.
Dynamic reconstruction was performed using a three-dimensional OSEM algorithm with 400 μm isometric voxel size. All image analysis was performed with software sold under the tradename VivoQuant™ (inviCRO, LLC, Boston, Massachusetts, United States of America). 3D regions of interest (ROIs) were drawn and standardized uptake values (SUVs) and percent injected dose per cubic centimeter of tissue (% ID/cc) were calculated for each ROI and time point. % ID/cc was calculated as a ratio of tissue radioactivity concentration (mCi/g) at time of scan to total injected activity (millicurie (mCi)) at time of scan.
Ex vivo Biodistribution: All animals were sacrificed at 3 hours post [^18F]JW199 injection and organs and tumors were immediately harvested. All tissues were weighed, and radioactivity was counted using a Cobra II […] (PerkinElmer, Waltham, Massachusetts, United States of America) calibrated for [^18F] energy. The concentration of radioactivity in tumor, organs, and tissues was determined as percentage of injected dose per cubic centimeter of tissue (% ID/cc).

[1] = tested on: PC3 prostate cancer xenografts; experiment: PET/CT imaging and ex vivo biodistribution in mice bearing PC3 xenografts; parameters: species or system mouse; conditions: ex vivo quantitation, 3 hours after injection, prostate cancer model
Description: FIGS. 12A-12C: In vivo prostate cancer tumor images with fluorine-18-labeled 2-isopropylphenyl-(4-(2-fluorethoxy)phenethyl)carbamate ([^18F]JW199) tracer. FIG. 12A is a representative whole-body positron emission tomography-computed tomography (PET-CT) image of a PC3 prostate cancer cell tumor-bearing mouse and tumor boundary image in inset. Image is representative of n=4 mice. B. FIG. 12B is a graph showing the ex vivo biodistribution of [^18F]JW199 in mice bearing PC3 xenografts. Quantification of radiotracer signal in the indicated tissues 3 hours after injection of 150 microcurie (μCi) of radiotracer. Data are means percentage injected dose per cubic centimeter (% ID/cc)±standard deviation (SD) (n=4 male mice). FIG. 12C is a graph of the glyceraldehyde-3-phosphate dehydrogenase (GAPDH)-normalized neutral cholesterol ester hydrolase 1 (NCEH1) protein levels in the edge (red) and inside (blue) areas of tumor xenografts, ***p<0.001 as determined by Student's t-test. […]
In vivo microPET/CT imaging: All imaging was performed by the Integrated Small Animal Imaging Research Resource (iSAIRR) at the University of Chicago (Chicago, Illinois, United States of America) on a β-Cube and X-Cube (Molecubes NV, Ghent, Belgium). […] Respiration rate and body temperature of the animal were constantly monitored during the entire scanning period with the p-Cube and X-Cube onboard monitoring system. […]

With `CC(C)c1ccccc1OC(=O)NCCc1ccc(OCC[18F])cc1` [[^18F]JW199, fluorine-18-labeled 2-isopropylphenyl-(4-(2-fluoroethoxy)phenethyl)carbamate] the “PET signal kinetics in target organs” value (NCEH1; during the entire imaging procedure) was “quickly reached and maintained constant levels”, the “PET signal in the brain” value (NCEH1; i.v.) was “low PET signal” and the CNS penetration (NCEH1; i.v., inferred from brain PET signal) was “low CNS penetration”. For the same compound, the “uptake in adipose depots, liver and bone” value (NCEH1; i.v., tissues with low Nceh1 mRNA levels) was “relatively low uptake”, the “PET signal accumulation in kidney, heart and lung” value (NCEH1; i.v., ~100 μCi, tissues with relatively high Nceh1 expression) was “Significant signal accumulation” and the “accumulation in mouse tissues” value (NCEH1; mouse, in vivo) was “rapid, NCEH1-dependent accumulation”. The “total radioactivity in bulk tumor tissue relative to surrounding muscle” value [1] was “higher total radioactivity”.
